This experiment has as its target human PAD4 (hPAD4) (Homo sapiens (Human), UniProt Q9UM07). Put plainly: RFMS Human PAD4 Functional Assay 1. The note with it: RFMS assay 1; 5 nM hPAD4, 250 μM BAEE substrate, 50 μM calcium, 37° C. In kind it is biochemical. Summed up: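 Recombinant hPAD4 (5 nM) was preincubated with compound (top 50 μM, 0.5% DMSO) for 30 min at 37 °C, then reacted with 250 μM BAEE for 90 min at 37 °C in pH 7.5 HEPES buffer with 50 μM calcium and 5 μM TPEN. Product was derivatized with phenyl glyoxal and quantified by RapidFire MS.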
human PAD4 (hPAD4), sequence (Q9UM07 whole entry): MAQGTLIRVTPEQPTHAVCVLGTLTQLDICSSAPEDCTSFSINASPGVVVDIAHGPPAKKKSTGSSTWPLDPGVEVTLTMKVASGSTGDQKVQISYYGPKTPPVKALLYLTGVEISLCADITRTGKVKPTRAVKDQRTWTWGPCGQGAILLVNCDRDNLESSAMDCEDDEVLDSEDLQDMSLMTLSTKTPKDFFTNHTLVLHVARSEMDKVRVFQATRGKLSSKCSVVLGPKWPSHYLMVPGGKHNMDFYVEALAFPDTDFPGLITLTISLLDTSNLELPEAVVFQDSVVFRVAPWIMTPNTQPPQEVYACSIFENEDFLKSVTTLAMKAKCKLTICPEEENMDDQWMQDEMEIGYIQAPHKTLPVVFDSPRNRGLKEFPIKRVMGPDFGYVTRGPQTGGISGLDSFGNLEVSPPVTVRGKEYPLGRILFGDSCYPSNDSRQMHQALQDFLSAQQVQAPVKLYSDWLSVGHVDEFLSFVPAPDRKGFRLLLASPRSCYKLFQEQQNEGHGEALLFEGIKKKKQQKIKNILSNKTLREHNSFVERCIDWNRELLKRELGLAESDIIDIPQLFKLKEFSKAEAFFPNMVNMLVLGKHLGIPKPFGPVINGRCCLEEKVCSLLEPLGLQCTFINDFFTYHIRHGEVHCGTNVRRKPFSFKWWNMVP
One may read the IC50 as the midpoint of a concentration-inhibition curve. Consider `COc1cc(C(=O)N2C[C@H](N)C[C@@H](F)C2)cn2nc(-c3cc4ccc(N5C[C@H](N)C[C@@H](F)C5)cc4n3CC3CC3)c(C)c12` [Example 34, ((3R,5R)-3-Amino-5-fluoropiperidin-1-yl)(2-(6-((3R,5R)-3-amino-5-fluoropiperidin-1-yl)-1-(cyclopropylmethyl)-1H-indol-2-yl)-4-methoxy-3-methylpyrazolo[1,5-a]pyridin-6-yl)methanone], for which the IC50 turned out to be 42 nM.

Turning to `COc1cc(C(=O)N2C[C@H](N)C[C@@H](F)C2)cn2nc(-c3cc4ccc(N5CCC(OC)CC5)cc4n3CC3CC3)c(C)c12` [Example 35, ((3R,5R)-3-Amino-5-fluoropiperidin-1-yl)(2-(1-(cyclopropylmethyl)-6-(4-methoxypiperidin-1-yl)-1H-indol-2-yl)-4-methoxy-3-methylpyrazolo[1,5-a]pyridin-6-yl)methanone], the IC50 stood at 139 nM.

As for `COc1cc(C(=O)N2C[C@H](N)C[C@@H](F)C2)cn2nc(-c3cc4ccc(NC[C@@H](F)C(C)(C)O)cc4n3CC3CC3)c(C)c12` [Example 36, ((3R,5R)-3-Amino-5-fluoropiperidin-1-yl)(2-(1-(cyclopropylmethyl)-6-(((R)-2-fluoro-3-hydroxy-3-methylbutyl)amino)-1H-indol-2-yl)-4-methoxy-3-methylpyrazolo[1,5-a]pyridin-6-yl)methanone], the IC50 turned out to be 782 nM.

With `COc1cc(C(=O)N2C[C@H](N)C[C@@H](F)C2)cn2nc(-c3cc4ccc(N5CC(F)(CO)C5)cc4n3CC3CC3)c(C)c12` [Example 37, ((3R,5R)-3-Amino-5-fluoropiperidin-1-yl)(2-(1-(cyclopropylmethyl)-6-(3-fluoro-3-(hydroxymethyl)azetidin-1-yl)-1H-indol-2-yl)-4-methoxy-3-methylpyrazolo[1,5-a]pyridin-6-yl)methanone], the IC50 came to 3610 nM.

`Cc1c(-c2cc3cccnc3n2CC2CC2)nn2cc(C(=O)N3CC4CCC3[C@@H]4N)cc(F)c12` (stereo partly drawn) [Example 38, ((7R)-7-Amino-2-azabicyclo[2.2.1]heptan-2-yl)(2-(1-(cyclopropylmethyl)-1H-pyrrolo[2,3-b]pyridin-2-yl)-4-fluoro-3-methylpyrazolo[1,5-a]pyridin-6-yl)methanone]: the IC50 amounted to 158 nM.

In the case of `Cc1c(-c2cc3ccc(Cl)nc3n2CC2CC2)nn2cc(C(=O)N3CC4CCC3[C@@H]4N)cc(F)c12` (stereo partly drawn) [Example 39, ((7R)-7-Amino-2-azabicyclo[2.2.1]heptan-2-yl)(2-(6-chloro-1-(cyclopropylmethyl)-1H-pyrrolo[2,3-b]pyridin-2-yl)-4-fluoro-3-methylpyrazolo[1,5-a]pyridin-6-yl)methanone], the IC50 stood at 87 nM.

For the compound `Cc1ccc2cc(-c3nn4cc(C(=O)N5CC6CCC5[C@@H]6N)cc(F)c4c3C)n(CC3CC3)c2n1` (stereo partly drawn) [Example 40, 3((7R)-7-Amino-2-azabicyclo[2.2.1]heptan-2-yl)(2-(1-(cyclopropylmethyl)-6-methyl-1H-pyrrolo[2,3-b]pyridin-2-yl)-4-fluoro-3-methylpyrazolo[1,5-a]pyridin-6-yl)methanone], the IC50 came out at 25 nM.

In the case of `Cc1c(-c2cc3ccc(C4CC4)nc3n2CC2CC2)nn2cc(C(=O)N3CC4CCC3[C@@H]4N)cc(F)c12` (stereo partly drawn) [Example 41, ((7R)-7-Amino-2-azabicyclo[2.2.1]heptan-2-yl)(2-(6-cyclopropyl-1-(cyclopropylmethyl)-1H-pyrrolo[2,3-b]pyridin-2-yl)-4-fluoro-3-methylpyrazolo[1,5-a]pyridin-6-yl)methanone], the IC50 was 85 nM.

With `Cc1c(-c2cc3ccc(-c4ccc5c(c4)CNC5=O)nc3n2CC2CC2)nn2cc(C(=O)N3CC4CCC3[C@@H]4N)cc(F)c12` (stereo partly drawn) [Example 42, 5-(2-(6-((7R)-7-Amino-2-azabicyclo[2.2.1]heptane-2-carbonyl)-4-fluoro-3-methylpyrazolo[1,5-a]pyridin-2-yl)-1-(cyclopropylmethyl)-1H-pyrrolo[2,3-b]pyridin-6-yl)isoindolin-1-one], the concentration for half-maximal inhibition (IC50) worked out at 9 nM.

`Cc1c(-c2cc3ccc(-c4ccn5c(C)nnc5c4)nc3n2CC2CC2)nn2cc(C(=O)N3CC4CCC3[C@@H]4N)cc(F)c12` (stereo partly drawn) [Example 43, ((7R)-7-Amino-2-azabicyclo[2.2.1]heptan-2-yl)(2-(1-(cyclopropylmethyl)-6-(3-methyl-[1,2,4]triazolo[4,3-a]pyridin-7-yl)-1H-pyrrolo[2,3-b]pyridin-2-yl)-4-fluoro-3-methylpyrazolo[1,5-a]pyridin-6-yl)methanone]: the IC50 was determined as 150 nM.

Consider `Cc1c(-c2cc3ccc(-c4ccc(OC(F)F)c(F)c4)nc3n2CC2CC2)nn2cc(C(=O)N3CC4CCC3[C@@H]4N)cc(F)c12` (stereo partly drawn) [Example 44, ((7R)-7-Amino-2-azabicyclo[2.2.1]heptan-2-yl)(2-(1-(cyclopropylmethyl)-6-(4-(difluoromethoxy)-3-fluorophenyl)-1H-pyrrolo[2,3-b]pyridin-2-yl)-4-fluoro-3-methylpyrazolo[1,5-a]pyridin-6-yl)methanone], for which the half-maximal inhibitory concentration (IC50) stood at 1480 nM.

As to `COc1cc(-c2ccc3cc(-c4nn5cc(C(=O)N6CC7CCC6[C@@H]7N)cc(F)c5c4C)n(CC4CC4)c3n2)c(F)cn1` (stereo partly drawn) [Example 45, ((7R)-7-Amino-2-azabicyclo[2.2.1]heptan-2-yl)(2-(1-(cyclopropylmethyl)-6-(5-fluoro-2-methoxypyridin-4-yl)-1H-pyrrolo[2,3-b]pyridin-2-yl)-4-fluoro-3-methylpyrazolo[1,5-a]pyridin-6-yl)methanone], the IC50 is 101 nM.

For the compound `Cc1c(-c2cc3ccc(-c4ccc5c(c4)C(=O)NC5)nc3n2CC2CC2)nn2cc(C(=O)N3CC4CCC3[C@@H]4N)cc(F)c12` (stereo partly drawn) [Example 46, 6-(2-(6-((7R)-7-Amino-2-azabicyclo[2.2.1]heptane-2-carbonyl)-4-fluoro-3-methylpyrazolo[1,5-a]pyridin-2-yl)-1-(cyclopropylmethyl)-1H-pyrrolo[2,3-b]pyridin-6-yl)isoindolin-1-one], the IC50 came to 41 nM.

Consider `Cc1c(-c2cc3ccc(-c4ccc(OC(F)F)cc4)nc3n2CC2CC2)nn2cc(C(=O)N3CC4CCC3[C@@H]4N)cc(F)c12` (stereo partly drawn) [Example 47, ((7R)-7-Amino-2-azabicyclo[2.2.1]heptan-2-yl)(2-(1-(cyclopropylmethyl)-6-(4-(difluoromethoxy)phenyl)-1H-pyrrolo[2,3-b]pyridin-2-yl)-4-fluoro-3-methylpyrazolo[1,5-a]pyridin-6-yl)methanone], for which the IC50 amounted to 1480 nM.

For the compound `Cc1c(-c2cc3ccc(-c4ccc(O)c(F)c4)nc3n2CC2CC2)nn2cc(C(=O)N3CC4CCC3[C@@H]4N)cc(F)c12` (stereo partly drawn) [Example 48, ((7R)-7-Amino-2-azabicyclo[2.2.1]heptan-2-yl)(2-(1-(cyclopropylmethyl)-6-(3-fluoro-4-hydroxyphenyl)-1H-pyrrolo[2,3-b]pyridin-2-yl)-4-fluoro-3-methylpyrazolo[1,5-a]pyridin-6-yl)methanone], the IC50 worked out at 326 nM.

For the compound `Cc1c(-c2cc3ccc(-c4cccc(O)c4F)nc3n2CC2CC2)nn2cc(C(=O)N3CC4CCC3[C@@H]4N)cc(F)c12` (stereo partly drawn) [Example 49, ((7R)-7-Amino-2-azabicyclo[2.2.1]heptan-2-yl)(2-(1-(cyclopropylmethyl)-6-(2-fluoro-3-hydroxyphenyl)-1H-pyrrolo[2,3-b]pyridin-2-yl)-4-fluoro-3-methylpyrazolo[1,5-a]pyridin-6-yl)methanone], the IC50 worked out at 36 nM.

Regarding `COC1CN(c2ccc3cc(-c4nn5cc(C(=O)N6CC7CCC6[C@@H]7N)cc(F)c5c4C)n(CC4CC4)c3n2)C1` (stereo partly drawn) [Example 50, ((7R)-7-Amino-2-azabicyclo[2.2.1]heptan-2-yl)(2-(1-(cyclopropylmethyl)-6-(3-methoxyazetidin-1-yl)-1H-pyrrolo[2,3-b]pyridin-2-yl)-4-fluoro-3-methylpyrazolo[1,5-a]pyridin-6-yl)methanone], the IC50 was 74 nM.

Turning to `Cc1c(-c2cc3ccc(N4CCC[C@@H](O)C4)nc3n2CC2CC2)nn2cc(C(=O)N3CC4CCC3[C@@H]4N)cc(F)c12` (some centres unmarked) [Example 51], the IC50 is 109 nM.

As to `Cc1c(-c2cc3cccnc3n2CC2CC2)nn2cc(C(=O)N3C[C@H](N)C[C@@H](F)C3)cc(F)c12` [Example 52, ((3R,5R)-3-Amino-5-fluoropiperidin-1-yl)(2-(1-(cyclopropylmethyl)-1H-pyrrolo[2,3-b]pyridin-2-yl)-4-fluoro-3-methylpyrazolo[1,5-a]pyridin-6-yl)methanone], the IC50 worked out at 882 nM.

Consider `Cc1c(-c2cc3ccc(Cl)nc3n2CC2CC2)nn2cc(C(=O)N3C[C@H](N)C[C@@H](F)C3)cc(F)c12` [Example 53, ((3R,5R)-3-Amino-5-fluoropiperidin-1-yl)(2-(6-chloro-1-(cyclopropylmethyl)-1H-pyrrolo[2,3-b]pyridin-2-yl)-4-fluoro-3-methylpyrazolo[1,5-a]pyridin-6-yl)methanone], for which the IC50 came to 446 nM.

Take `Cc1ccc2cc(-c3nn4cc(C(=O)N5C[C@H](N)C[C@@H](F)C5)cc(F)c4c3C)n(CC3CC3)c2n1` [Example 54, ((3R,5R)-3-Amino-5-fluoropiperidin-1-yl)(2-(1-(cyclopropylmethyl)-6-methyl-1H-pyrrolo[2,3-b]pyridin-2-yl)-4-fluoro-3-methylpyrazolo[1,5-a]pyridin-6-yl)methanone]: the IC50 was 358 nM.

Turning to `Cc1c(-c2cc3ccc(-c4cccc(O)c4F)nc3n2CC2CC2)nn2cc(C(=O)N3C[C@H](N)C[C@@H](F)C3)cc(F)c12` [Example 55, ((3R,5R)-3-Amino-5-fluoropiperidin-1-yl)(2-(1-(cyclopropylmethyl)-6-(2-fluoro-3-hydroxyphenyl)-1H-pyrrolo[2,3-b]pyridin-2-yl)-4-fluoro-3-methylpyrazolo[1,5-a]pyridin-6-yl)methanone], the IC50 is 543 nM.

As for `Cc1c(-c2cc3ccc(-c4ccc(C(N)=O)c(F)c4)nc3n2CC2CC2)nn2cc(C(=O)N3C[C@H](N)C[C@@H](F)C3)cc(F)c12` [Example 56, 4-(2-(6-((3R,5R)-3-Amino-5-fluoropiperidine-1-carbonyl)-4-fluoro-3-methylpyrazolo[1,5-a]pyridin-2-yl)-1-(cyclopropylmethyl)-1H-pyrrolo[2,3-b]pyridin-6-yl)-2-fluorobenzamide], the IC50 came out at 468 nM.

The values are drawn from patent publication US12473304B2, “Heterocyclic PAD4 inhibitors” (BRISTOL-MYERS SQUIBB COMPANY, priority 2020, dated 2025).
